Source: article PMC6925622 (Clinical pharmacology and therapeutics, 2019)
Values after ≈ are worked out from the molar mass of the structure shown. Values joined by “and” are separate entries in the source; they are usually repeats but may differ in a detail not shown here. Equal values may be shown once.

Columns and labels:
CYP3A4 = details: midazolam is the CYP3A probe, cited from earlier work
CYP3A5 [1] = details: midazolam is the CYP3A probe, cited from earlier work
CYP3A4/5 = assay: Clinical midazolam-ketoconazole interaction study; format: in vivo, human; details: for CLpo (oral clearance) / Cmax /Dose: oral midazolam
CYP3A5 and CYP3A4 = details: preferentially inhibits CYP3A4; cited from earlier work
[2] = cited from earlier work
[3] = Clinical study control phase: midazolam pharmacokinetics by CYP3A5 genotype; format: in vivo, human; details: for Clearance Oral GM (90% CI): Observed, single dose of midazolam, blood clearance; for clearance: iv, 0.05 mg/kg, CLsys (systemic clearance), IV midazolam; for clearance / bioavailability / Tmax / half-life / CLpo (oral clearance) / Cmax /Dose: midazolam alone (control); for bioavailability: Fpo (oral bioavailability); for Tmax / CLpo (oral clearance) / Cmax /Dose: oral midazolam; for half-life: t1/2 (terminal half-life); for intestinal availability (FG): midazolam alone
CYP3A5 [4] = details: cited from earlier work
[5] = human, serum, geometric mean, CYP3A5*1/*1 (n=6)
[6] = human, serum, geometric mean, CYP3A5*1/*3 and *1/*6 (n=9)
[7] = human, serum, geometric mean, CYP3A5*3/*3 non-expressers (n=8)
[8] = human, serum, geometric mean, CYP3A5 expressers (n=15)
[9] = human, serum, CYP3A5*3/*7 (n=1)
[10] = geometric mean, CYP3A5*1/*1 (n=6)
[11] = geometric mean, CYP3A5*1/*3 and *1/*6 (n=9)
[12] = geometric mean, CYP3A5 expressers (n=15)
[13] = after 200 mg KTZ, CYP3A5*3/*7 (n=1)
[14] = after 400 mg KTZ, CYP3A5*3/*7 (n=1)
[15] = geometric mean, after 200 mg KTZ, CYP3A5*3/*3 non-expressers
[16] = geometric mean, after 200 mg KTZ, CYP3A5 expressers
[17] = geometric mean, after 400 mg KTZ, CYP3A5*1/*1
[18] = geometric mean, after 400 mg KTZ, CYP3A5*1/*3 and *1/*6
[19] = geometric mean, after 400 mg KTZ, CYP3A5*3/*3 non-expressers
[20] = geometric mean, after 400 mg KTZ, CYP3A5 expressers

CC(=O)N1CCN(c2ccc(OCC3COC(Cn4ccnc4)(c4ccc(Cl)cc4Cl)O3)cc2)CC1 (centres unmarked) [ketoconazole]
difference in the AUC0–10hr of ketoconazole between the 6th and 7th day of dosing (CYP3A4/5; ketoconazole 200 mg or 400 mg): no significant difference
inhibition of gut CYP3A (CYP3A4/5; ketoconazole 200 and 400 mg doses): almost complete inhibition

CCC(C)n1ncn(-c2ccc(N3CCN(c4ccc(OCC5COC(Cn6cncn6)(c6ccc(Cl)cc6Cl)O5)cc4)CC3)cc2)c1=O (centres unmarked) [Itraconazole]
Ki,3A5/Ki,3A4 (CYP3A5 and CYP3A4): ≥ 7

Cc1ncc2n1-c1ccc(Cl)cc1C(c1ccccc1F)=NC2 [midazolam]
midazolam FG in SimCYP ([2]; derived using plasma clearance and hepatic plasma flow): 0.57
inter-individual variability of midazolam clearance in other studies ([2]; other studies): 3.3- to 5.2 fold
Clearance Oral GM (90% CI) ([3]; CYP3A5 expressers): 140 (114.5–171.3) L/hr
Clearance Oral GM (90% CI) ([3]; CYP3A5 non-expressers): 105 (83.5–131.5) L/hr
clearance [3, 5]: 540 mL/min
clearance [3, 6]: 550 mL/min
clearance [3, 7]: 402 mL/min
clearance [3, 8]: 547 mL/min
clearance [3, 9]: 318 mL/min
bioavailability ([3]; human, serum, po, 4 mg, geometric mean, CYP3A5*1/*1 (n=6)): 22%
bioavailability ([3]; human, serum, po, 4 mg, geometric mean, CYP3A5*1/*3 and *1/*6 (n=9)): 23%
bioavailability ([3]; human, serum, po, 4 mg, geometric mean, CYP3A5*3/*3 non-expressers (n=8)): 26%
bioavailability ([3]; human, serum, po, 4 mg, geometric mean, CYP3A5 expressers (n=15)): 23%
bioavailability ([3]; human, serum, po, 4 mg, CYP3A5*3/*7 (n=1)): 36%
Tmax ([3]; human, serum, po, 4 mg, Tmax, CYP3A5*3/*7 (n=1)): 1 h
half-life [3, 5]: 2.76 h
half-life [3, 6]: 2.75 h
half-life [3, 7]: 3.05 h
half-life [3, 8]: 2.75 h
half-life [3, 9]: 5.25 h
intestinal availability (FG) ([3]; CYP3A5 expressers): 0.35±0.09
intestinal availability (FG) ([3]; CYP3A5 non-expressers): 0.33±0.06
CLpo (oral clearance) [3, 10]: 144 L/h
Cmax /Dose [3, 10]: 1.5 ng/mL
CLpo (oral clearance) [3, 11]: 137 L/h
Cmax /Dose [3, 11]: 1.6 ng/mL
CLpo (oral clearance) [3, 12]: 140 ± 66 L/h and 140 L/h
Cmax /Dose [3, 12]: 1.6 ± 0.6 ng/mL and 1.6 ng/mL
CLpo (oral clearance) ([3]; CYP3A5*3/*7 (n=1)): 55.7 L/h
Cmax /Dose ([3]; CYP3A5*3/*7 (n=1)): 3.4 ng/mL
Tmax ([3]; CYP3A5 expressers (n=15)): 0.7 h
inter-individual variability for the CLsys ([3]; this study): 2.3 fold
inter-individual variability of CLpo ([3]; this study): 7.0 fold
CLpo (oral clearance) (CYP3A4/5; [13]): 4.6 L/h
Cmax /Dose (CYP3A4/5; [13]): 18.1 ng/mL
CLpo (oral clearance) (CYP3A4/5; [14]): 2.7 L/h
Cmax /Dose (CYP3A4/5; [14]): 21.2 ng/mL
Cmax /Dose (CYP3A4/5; geometric mean, after 200 mg KTZ, CYP3A5*1/*1): 9.6 ng/mL
Cmax /Dose (CYP3A4/5; geometric mean, after 200 mg KTZ, CYP3A5*1/*3 and *1/*6): 7.9 ng/mL
CLpo (oral clearance) (CYP3A4/5; [15]): 7.0 ± 2.0 L/h and 7.0 L/h
Cmax /Dose (CYP3A4/5; [15]): 12.3 ng/mL
CLpo (oral clearance) (CYP3A4/5; [16]): 13.3 ± 5.6 L/h
Cmax /Dose (CYP3A4/5; [16]): 8.5 ng/mL
CLpo (oral clearance) (CYP3A4/5; [17]): 8.2 L/h
Cmax /Dose (CYP3A4/5; [17]): 9.4 ng/mL
CLpo (oral clearance) (CYP3A4/5; [18]): 8.6 L/h
Cmax /Dose (CYP3A4/5; [18]): 8.9 ng/mL
CLpo (oral clearance) (CYP3A4/5; [19]): 4.9 ± 1.3 L/h and 4.9 L/h
Cmax /Dose (CYP3A4/5; [19]): 15.8 ng/mL
CLpo (oral clearance) (CYP3A4/5; [20]): 8.4 ± 3.5 L/h and 8.4 L/h
Cmax /Dose (CYP3A4/5; [20]): 9.1 ng/mL

OC(Cn1cncn1)(Cn1cncn1)c1ccc(F)cc1F [fluconazole]
changes of midazolam metabolites formation across CYP3A5 genotypes (CYP3A5 [4]): did not result in differential changes
